How the values were obtained:
Assay in all cases: relative viability (nuclei count vs DMSO), 5 days (fraction); higher = more cells survive
Ruxolitinib + Crizotinib = compound: N#CC[C@H](C1CCCC1)n1cc(-c2ncnc3[nH]ccc23)cn1 [Ruxolitinib] + C[C@@H](Oc1cc(-c2cnn(C3CCNCC3)c2)cnc1N)c1c(Cl)ccc(F)c1Cl [Crizotinib] (partner 1 µM)
Procedure, shortened: (§1)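 For relative viability, nuclei counts in treated wells were divided by those in vehicle wells. Lung cancer cell lines had been pin-tool dosed in 1536-well plates the day after seeding and cultured for 5 days, then fixed and stained in one step (final 0.05% Triton X-100, 1% formaldehyde, 1 ug/ml Hoechst) and imaged at 4×. Doses were one drug alone or a fixed anchor-drug dose plus five library-drug doses (not always all listed) in √10 steps, and values are duplicate-plate medians.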

Ruxolitinib + Luminespib = compound: N#CC[C@H](C1CCCC1)n1cc(-c2ncnc3[nH]ccc23)cn1 [Ruxolitinib] + CCNC(=O)c1noc(-c2cc(C(C)C)c(O)cc2O)c1-c1ccc(CN2CCOCC2)cc1 [Luminespib] (partner 0.01 µM)
Procedure, shortened: as §1

Vismodegib + Crizotinib = compound: CS(=O)(=O)c1ccc(C(=O)Nc2ccc(Cl)c(-c3ccccn3)c2)c(Cl)c1 [Vismodegib] + C[C@@H](Oc1cc(-c2cnn(C3CCNCC3)c2)cnc1N)c1c(Cl)ccc(F)c1Cl [Crizotinib] (partner 1 µM)
Procedure, shortened: as §1

Ruxolitinib + Pemetrexed = compound: N#CC[C@H](C1CCCC1)n1cc(-c2ncnc3[nH]ccc23)cn1 [Ruxolitinib] + Nc1nc2[nH]cc(CCc3ccc(C(=O)N[C@@H](CCC(=O)O)C(=O)O)cc3)c2c(=O)[nH]1 [Pemetrexed] (partner 0.2 µM)
Procedure, shortened: as §1

Row | Cell Line | relative viability (Ruxolitinib + Crizotinib; first compound 0.08 µM) | relative viability (Ruxolitinib + Crizotinib; first compound 0.253 µM) | relative viability (Ruxolitinib + Crizotinib; first compound 0.8 µM) | relative viability (Ruxolitinib + Crizotinib; first compound 2.53 µM) | relative viability (Ruxolitinib + Crizotinib; first compound 8 µM) | relative viability (Ruxolitinib + Luminespib; first compound 0.08 µM) | relative viability (Ruxolitinib + Luminespib; first compound 0.253 µM) | relative viability (Ruxolitinib + Luminespib; first compound 0.8 µM) | relative viability (Ruxolitinib + Luminespib; first compound 2.53 µM) | relative viability (Ruxolitinib + Luminespib; first compound 8 µM) | relative viability (Vismodegib + Crizotinib; first compound 0.08 µM) | relative viability (Vismodegib + Crizotinib; first compound 0.253 µM) | relative viability (Vismodegib + Crizotinib; first compound 0.8 µM) | relative viability (Vismodegib + Crizotinib; first compound 2.53 µM) | relative viability (Vismodegib + Crizotinib; first compound 8 µM) | relative viability (Ruxolitinib + Pemetrexed; first compound 0.08 µM) | relative viability (Ruxolitinib + Pemetrexed; first compound 0.253 µM) | relative viability (Ruxolitinib + Pemetrexed; first compound 0.8 µM) | relative viability (Ruxolitinib + Pemetrexed; first compound 2.53 µM) | relative viability (Ruxolitinib + Pemetrexed; first compound 8 µM)
1 | 201T | 1.02 | 1.11 | 1.19 | 1.29 | 1.18 | 1.1 | 1.22 | 1.24 | 1.17 | 1.18 | 0.954 | 1.06 | 0.997 | 1.02 | 1.01 | 0.336 | 0.338 | 0.389 | 0.325 | 0.299
2 | A549 | 0.782 | 0.891 | 0.855 | 0.692 | 0.293 |  |  |  |  |  | 0.711 | 0.759 | 0.796 | 0.672 | 0.686 |  |  |  |  | 
3 | A-427 | 0.843 | 1.07 | 0.867 | 0.66 | 0.789 |  | 0.969 | 1 | 0.715 | 0.813 | 0.833 | 0.838 | 0.927 | 0.857 | 0.882 | 1 | 0.927 | 0.967 | 1.04 | 0.893
4 | ABC-1 | 1.12 | 1.02 | 1.22 | 0.992 | 1.26 |  | 0.736 | 0.987 | 0.509 | 0.437 | 0.6 | 0.827 | 1.12 | 0.993 | 0.958 |  |  |  |  | 
5 | BEN | 0.832 | 1.01 | 1.07 | 0.735 | 0.95 | 0.339 | 0.64 | 0.519 | 0.377 | 0.33 | 0.779 | 0.927 | 0.807 | 0.934 | 0.986 | 0.534 | 0.744 | 0.818 | 0.688 | 0.95
6 | CAL-12T | 0.914 | 0.586 | 0.81 | 0.481 | 0.576 | 0.364 | 0.771 | 0.448 | 0.305 | 0.335 | 0.693 | 0.761 | 0.685 | 0.773 | 0.807 | 1.15 | 1.18 | 1.22 | 0.993 | 0.802
7 | COR-L23 | 0.717 | 0.681 | 0.733 | 0.7 | 0.433 | 0.749 | 0.738 | 0.676 | 0.511 | 0.519 | 0.593 | 0.589 | 0.603 | 0.591 | 0.816 | 0.203 | 0.191 | 0.201 | 0.195 | 0.191
8 | COR-L 105 | 0.789 | 0.634 | 0.853 | 0.444 | 0.625 | 0.707 | 0.93 | 0.789 | 0.538 | 0.511 | 0.63 | 0.728 | 0.751 | 0.773 | 0.715 |  | 1 | 0.926 | 0.874 | 0.919
9 | Calu-6 | 0.797 | 0.676 | 1 | 0.711 | 0.399 |  |  |  |  |  | 0.705 | 0.754 | 0.757 | 0.814 | 0.886 |  |  |  |  | 
10 | ChaGo-K-1 |  | 1.13 | 1.22 | 0.963 | 0.997 | 0.635 | 0.655 | 0.605 | 0.492 | 0.517 | 1.19 | 1.09 | 1.13 | 1.06 | 1.22 | 0.255 | 0.263 | 0.26 | 0.256 | 0.246
11 | EBC-1 | 0.191 |  | 0.21 | 0.204 | 0.202 |  |  |  |  |  | 0.173 | 0.201 | 0.168 | 0.182 | 0.202 |  |  |  |  | 
12 | EKVX | 0.894 | 0.983 | 1.07 | 0.757 | 0.798 | 0.85 | 0.877 | 0.975 | 0.816 | 0.804 | 0.849 | 0.895 | 0.898 | 1.09 | 0.952 |  | 0.403 | 0.41 | 0.402 | 0.237
13 | EMC-BAC-2 | 0.801 | 0.782 | 0.85 | 0.68 | 0.445 | 1.09 | 1.16 | 1.15 | 1.04 | 0.947 | 0.768 | 0.797 | 0.72 | 0.73 | 0.796 | 0.454 | 0.419 | 0.431 | 0.439 | 0.368
14 | EPLC-272H | 0.925 | 0.945 | 1.2 | 0.729 | 0.863 | 0.632 | 0.224 | 0.241 | 0.295 | 0.174 | 0.899 | 0.849 | 0.856 | 0.867 | 1.04 | 0.357 | 0.372 | 0.377 | 0.313 | 0.218
15 | H3255 |  | 0.752 | 1.12 | 0.806 | 0.849 | 0.85 | 0.881 | 1.07 | 0.841 | 0.865 | 0.812 | 0.737 | 0.965 | 0.913 | 0.597 | 0.506 | 0.553 | 0.569 | 0.528 | 0.473
16 | HARA | 1.02 | 1.02 | 1.08 | 1.09 | 0.687 | 0.9 | 0.83 | 0.897 | 0.839 | 0.342 | 0.956 | 0.965 | 1.03 | 1.05 | 1.06 | 0.206 | 0.27 | 0.225 | 0.221 | 0.229
17 | HCC-15 | 0.774 | 0.839 | 0.883 | 0.794 | 0.693 | 0.345 | 0.216 | 0.555 | 0.302 | 0.203 | 0.782 | 0.859 | 0.889 | 0.879 | 0.83 | 0.223 | 0.227 | 0.212 | 0.194 | 0.203
18 | HCC-44 | 0.765 | 0.839 | 0.866 | 0.854 | 0.527 | 1.02 | 1.07 | 1.2 | 0.689 | 0.527 | 0.782 | 0.721 | 0.829 | 0.763 | 0.783 | 0.632 | 0.694 | 0.646 | 0.571 | 0.641

Reference: the supplement of paper PMC10307832
